# Read-outs that look alike come from different tables or passages of the source.
# Molecular target: T1, hMCHR (MCH receptor) (Homo sapiens, UniProt Q99705)
# T1 construct: (or internally produced); host or cells: CHO (Chinese hamster ovary) cells, membrane preparation
# Test: MCH Assay PCOP Protocol ([125I]-MCH SPA binding to hMCHR-CHO membranes);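 on Activity (Ki range): A 0.4–50 nM B 51–500 nM C 501–2500 nM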
# Procedure, shortened: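 SPA binding with 10 μg hMCHR-CHO membranes and WGA-SPA beads in 25 mM HEPES pH 7.4, 10 mM NaCl, 10 mM MgCl2, 5 mM MnCl2, 0.1% BSA.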
# [1] = [125I]-MCH binding to hMCHR-CHO membranes, class symbols for ranges of Ki, read-out: Activity (Ki range)
# [2] = [125I]-MCH SPA binding, hMCHR-CHO membranes, Ki class ranges, read-out: Activity (range of Ki)
# T1 sequence (Q99705 whole entry): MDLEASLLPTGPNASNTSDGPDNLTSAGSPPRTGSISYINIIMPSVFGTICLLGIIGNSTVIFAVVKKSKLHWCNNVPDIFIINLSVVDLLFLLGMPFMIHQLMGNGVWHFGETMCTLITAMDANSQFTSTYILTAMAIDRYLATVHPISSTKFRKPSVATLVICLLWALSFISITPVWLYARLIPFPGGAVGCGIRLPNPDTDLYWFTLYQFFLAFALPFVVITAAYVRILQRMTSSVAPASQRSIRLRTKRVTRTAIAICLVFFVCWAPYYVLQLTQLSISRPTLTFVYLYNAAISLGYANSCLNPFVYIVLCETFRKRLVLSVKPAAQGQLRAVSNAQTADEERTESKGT
SMILES,Ki [1],Ki [2]
Cc1ccc(C(CCN2CCCCC2)CNC(=O)Nc2ccc(Cl)c(Cl)c2)cc1 (centres unmarked) [Example 352],51 to 500 nM,
Cc1ccc(C(CCN2CCCCC2)CNC(=O)Nc2cc(Cl)ccc2Cl)cc1 (centres unmarked) [Example 353],51 to 500 nM,
COc1cc(NC(=O)NCC(CCN2CCCCC2)c2ccc(C)cc2)cc(OC)c1 (centres unmarked) [Example 354],501 to 2500 nM,
Cc1ccc(C(CCN2CCCCC2)CNC(=O)Nc2cc(C)cc(C)c2)cc1 (centres unmarked) [Example 355],501 to 2500 nM,
O=C(NCC(CCN1CCC(N2CCCCC2)CC1)c1ccc(Cl)c(Cl)c1)Nc1ccc(F)c([N+](=O)[O-])c1 (centres unmarked) [Example 356],51 to 500 nM,
O=C(NCC(CCN1CCC(N2CCCCC2)CC1)c1ccc(Cl)c(Cl)c1)Nc1cccc(Cl)c1Cl (centres unmarked) [Example 358],501 to 2500 nM,
O=C(NCC(CCN1CCC(N2CCCCC2)CC1)c1ccc(Cl)c(Cl)c1)Nc1ccc(Br)cc1Br (centres unmarked) [Example 359],501 to 2500 nM,
O=C(NCC(CCN1CCC(N2CCCCC2)CC1)c1ccc(Cl)c(Cl)c1)Nc1cc(Cl)ccc1Cl (centres unmarked) [Example 360],501 to 2500 nM,
Cc1ccc(NC(=O)NCC(CCN2CCC(N3CCCCC3)CC2)c2ccc(Cl)c(Cl)c2)cc1F (centres unmarked) [Example 361],501 to 2500 nM,
O=C(NCC(CCN1CCC(N2CCCCC2)CC1)c1ccc(Cl)c(Cl)c1)Nc1ccc(OC(F)(F)F)cc1 (centres unmarked) [Example 362],501 to 2500 nM,
O=C(NCC(CCN1CCC(N2CCCCC2)CC1)c1ccc(Cl)c(Cl)c1)Nc1ccc(F)c(F)c1F (centres unmarked) [Example 363],501 to 2500 nM,
Cn1cnc(CCNCCC(CNC(=O)Nc2cc(C(F)(F)F)cc(C(F)(F)F)c2)c2ccc(Cl)c(Cl)c2)c1 (centres unmarked) [Example 367],501 to 2500 nM,
O=C(NCC(CCN1CCC(N2CCCCC2)CC1)c1ccc(F)c(F)c1)Nc1ccc(Cl)c(Cl)c1 (centres unmarked) [Example 369],501 to 2500 nM,
COc1cc(NC(=O)NCC(CCN2CCC(N3CCCCC3)CC2)c2ccc(Cl)c(Cl)c2)cc(OC)c1 (centres unmarked) [Example 370],501 to 2500 nM,
O=C(NCC(CCN1CCNCC1)c1ccc(Cl)c(Cl)c1)Nc1cc(C(F)(F)F)cc(C(F)(F)F)c1 (centres unmarked) [Example 371],501 to 2500 nM,
O=S(=O)(NCC(CCN1CCC(N2CCCCC2)CC1)c1ccc(Cl)c(Cl)c1)c1ccc(Cl)c(Cl)c1 (centres unmarked) [Example 372],501 to 2500 nM,
O=C(NCC(CCN1CCC(N2CCCCC2)CC1)c1ccc(Cl)c(Cl)c1)Nc1cc(C(F)(F)F)ccc1F (centres unmarked) [Example 373],501 to 2500 nM,
O=C(NCC(CCN1CCC(N2CCCCC2)CC1)c1ccc(Cl)c(Cl)c1)Nc1ccc(F)cc1 (centres unmarked) [Example 374],501 to 2500 nM,
N#Cc1cccc(NC(=O)NCC(CCN2CCC(N3CCCCC3)CC2)c2ccc(Cl)c(Cl)c2)c1 (centres unmarked) [Example 375],501 to 2500 nM,
O=S(=O)(NCC(CCN1CCC(N2CCCCC2)CC1)c1ccc(Cl)c(Cl)c1)c1cccc(C(F)(F)F)c1 (centres unmarked) [Example 376],501 to 2500 nM,
Cc1cc(C)cc(NC(=O)NCC(CCN2CCC(N3CCCCC3)CC2)c2ccc(Cl)c(Cl)c2)c1 (centres unmarked) [Example 377],501 to 2500 nM,

SMILES,Ki [1],Ki [2]
O=C(NCC(CCN1CCC(N2CCCCC2)CC1)c1ccc(F)c(F)c1)Nc1ccc(F)c(Cl)c1 (centres unmarked) [Example 378],501 to 2500 nM,
O=C(NCc1cc(C(F)(F)F)cc(C(F)(F)F)c1)C(CCNC1CCC1)c1ccc(Cl)c(Cl)c1 (centres unmarked) [Example 379],501 to 2500 nM,
O=C(NCc1cc(C(F)(F)F)cc(C(F)(F)F)c1)C(CCNCCN1CCCC1)c1ccc(Cl)c(Cl)c1 (centres unmarked) [Example 380],501 to 2500 nM,
O=C(NCc1cc(C(F)(F)F)cc(C(F)(F)F)c1)C(CCNCCc1c[nH]c2cc(F)ccc12)c1ccc(Cl)c(Cl)c1 (centres unmarked) [Example 381],501 to 2500 nM,
CC1CCN(CCC(C(=O)NCc2cc(C(F)(F)F)cc(C(F)(F)F)c2)c2ccc(Cl)c(Cl)c2)CC1 (centres unmarked) [Example 382],501 to 2500 nM,
O=C(NCc1cc(C(F)(F)F)cc(C(F)(F)F)c1)C(CCN1CCCCC1CO)c1ccc(Cl)c(Cl)c1 (centres unmarked) [Example 383],501 to 2500 nM,
CC(C)OCCCNCCC(C(=O)NCc1cc(C(F)(F)F)cc(C(F)(F)F)c1)c1ccc(Cl)c(Cl)c1 (centres unmarked) [Example 384],501 to 2500 nM,
O=C(NCc1cc(C(F)(F)F)cc(C(F)(F)F)c1)C(CCNCCc1c[nH]c2ccccc12)c1ccc(Cl)c(Cl)c1 (centres unmarked) [Example 385],501 to 2500 nM,
O=C(NCc1cc(C(F)(F)F)cc(C(F)(F)F)c1)C(CCNCCc1c[nH]c2ccc(F)cc12)c1ccc(Cl)c(Cl)c1 (centres unmarked) [Example 386],501 to 2500 nM,
O=C(NCc1cc(C(F)(F)F)cc(C(F)(F)F)c1)C(CCN1CCCC(CO)C1)c1ccc(Cl)c(Cl)c1 (centres unmarked) [Example 387],501 to 2500 nM,
O=C(NCc1cc(C(F)(F)F)cc(C(F)(F)F)c1)C(CCNCCCn1ccnc1)c1ccc(Cl)c(Cl)c1 (centres unmarked) [Example 388],501 to 2500 nM,
O=C(NCc1cc(C(F)(F)F)cc(C(F)(F)F)c1)C(CCN1CCC(O)CC1)c1ccc(Cl)c(Cl)c1 (centres unmarked) [Example 389],501 to 2500 nM,
O=C(NCc1cc(C(F)(F)F)cc(C(F)(F)F)c1)C(CCN1CCC(O)(c2ccc(Cl)cc2)CC1)c1ccc(Cl)c(Cl)c1 (centres unmarked) [Example 390],501 to 2500 nM,
Cc1cc(CNC(=O)C(CCN2CCCC(C)C2)c2ccc(Cl)c(Cl)c2)cc(C(F)(F)F)c1 (centres unmarked) [Example 391],501 to 2500 nM,
O=C(NCC(CCNCCc1ccc(O)cc1)c1ccc(Cl)c(Cl)c1)c1cc(C(F)(F)F)cc(C(F)(F)F)c1 (centres unmarked) [Example 392],51 to 500 nM,
CN(CCC(CNC(=O)c1cc(C(F)(F)F)cc(C(F)(F)F)c1)c1ccc(Cl)c(Cl)c1)CC(=O)O (centres unmarked) [Example 393],501 to 2500 nM,
COc1ccc2c(CCNCCC(CNC(=O)c3cc(C(F)(F)F)cc(C(F)(F)F)c3)c3ccc(Cl)c(Cl)c3)c[nH]c2c1 (centres unmarked) [Example 394],501 to 2500 nM,
CCCN(CC)CCC(CNC(=O)c1cc(C(F)(F)F)cc(C(F)(F)F)c1)c1ccc(Cl)c(Cl)c1 (centres unmarked) [Example 395],501 to 2500 nM,
COc1ccc2[nH]cc(CCNCCC(CNC(=O)c3cc(C(F)(F)F)cc(C(F)(F)F)c3)c3ccc(Cl)c(Cl)c3)c2c1 (centres unmarked) [Example 396],501 to 2500 nM,
O=C(NCC(CCN1CCc2c([nH]c3ccccc23)C1)c1ccc(Cl)c(Cl)c1)c1cc(C(F)(F)F)cc(C(F)(F)F)c1 (centres unmarked) [Example 397],501 to 2500 nM,
O=C(NCC(CCNC1CCC1)c1ccc(Cl)c(Cl)c1)c1cc(C(F)(F)F)cc(C(F)(F)F)c1 (centres unmarked) [Example 398],501 to 2500 nM,

SMILES,Ki [1],Ki [2]
CC(Cc1c[nH]c2ccc(F)cc12)NCCC(CNC(=O)c1cc(C(F)(F)F)cc(C(F)(F)F)c1)c1ccc(Cl)c(Cl)c1 (centres unmarked) [Example 399],501 to 2500 nM,
O=C(NCC(CCNCCc1c[nH]c2ccccc12)c1ccc(Cl)c(Cl)c1)c1cc(C(F)(F)F)cc(C(F)(F)F)c1 (centres unmarked) [Example 400],501 to 2500 nM,
CCCCN(CCC(CNC(=O)c1cc(C(F)(F)F)cc(C(F)(F)F)c1)c1ccc(Cl)c(Cl)c1)C1CC1 (centres unmarked) [Example 401],501 to 2500 nM,
O=C(NCC(CCN1CCN(c2ccc(O)cc2)CC1)c1ccc(Cl)c(Cl)c1)c1cc(C(F)(F)F)cc(C(F)(F)F)c1 (centres unmarked) [Example 402],501 to 2500 nM,
O=C(NCC(CCN1CCCCC1)c1ccc(Cl)c(Cl)c1)c1cc(C(F)(F)F)cc(C(F)(F)F)c1 (centres unmarked) [Example 403],501 to 2500 nM,
O=C(NCC(CCNCC1CCCO1)c1ccc(Cl)c(Cl)c1)c1cc(C(F)(F)F)cc(C(F)(F)F)c1 (centres unmarked) [Example 404],501 to 2500 nM,
CC1CCN(CCC(CNC(=O)c2cc(C(F)(F)F)cc(C(F)(F)F)c2)c2ccc(Cl)c(Cl)c2)CC1 (centres unmarked) [Example 405],501 to 2500 nM,
O=C(NCC(CCN1CCCC1)c1ccc(Cl)c(Cl)c1)c1cc(C(F)(F)F)cc(C(F)(F)F)c1 (centres unmarked) [Example 406],501 to 2500 nM,
CCN1CCCC1CNCCC(CNC(=O)c1cc(C(F)(F)F)cc(C(F)(F)F)c1)c1ccc(Cl)c(Cl)c1 (centres unmarked) [Example 407],501 to 2500 nM,
CN(CCC(CNC(=O)c1cc(C(F)(F)F)cc(C(F)(F)F)c1)c1ccc(Cl)c(Cl)c1)C1CCCCC1 (centres unmarked) [Example 408],501 to 2500 nM,
CC(C)OCCCNCCC(CNC(=O)c1cc(C(F)(F)F)cc(C(F)(F)F)c1)c1ccc(Cl)c(Cl)c1 (centres unmarked) [Example 409],501 to 2500 nM,
Cc1ccc2[nH]cc(CCNCCC(CNC(=O)c3cc(C(F)(F)F)cc(C(F)(F)F)c3)c3ccc(Cl)c(Cl)c3)c2c1 (centres unmarked) [Example 410],501 to 2500 nM,
O=C(NCC(CCNCCN1CCCC1)c1ccc(Cl)c(Cl)c1)c1cc(C(F)(F)F)cc(C(F)(F)F)c1 (centres unmarked) [Example 411],501 to 2500 nM,
CCN(CC)CCC(CNC(=O)c1cc(C(F)(F)F)cc(C(F)(F)F)c1)c1ccc(Cl)c(Cl)c1 (centres unmarked) [Example 412],501 to 2500 nM,
CN1CCCC1CCNCCC(CNC(=O)c1cc(C(F)(F)F)cc(C(F)(F)F)c1)c1ccc(Cl)c(Cl)c1 (centres unmarked) [Example 413],501 to 2500 nM,
O=C(NCC(CCNCCCn1ccnc1)c1ccc(Cl)c(Cl)c1)c1cc(C(F)(F)F)cc(C(F)(F)F)c1 (centres unmarked) [Example 414],501 to 2500 nM,
O=C(NCC(CCNCCc1c[nH]c2cc(F)ccc12)c1ccc(Cl)c(Cl)c1)c1cc(C(F)(F)F)cc(C(F)(F)F)c1 (centres unmarked) [Example 415],501 to 2500 nM,
O=C(NCC(CCN1CCC(CNC2(CO)CCCC2)CC1)c1ccc(Cl)c(Cl)c1)c1cc(C(F)(F)F)cc(C(F)(F)F)c1 (centres unmarked) [Example 416],501 to 2500 nM,
CC1CCCN(CCC(CNC(=O)c2cc(C(F)(F)F)cc(C(F)(F)F)c2)c2ccc(Cl)c(Cl)c2)C1 (centres unmarked) [Example 417],,501 to 2500 nM
O=C(NCC(CCN1CCCC1CN1CCCC1)c1ccc(Cl)c(Cl)c1)c1cc(C(F)(F)F)cc(C(F)(F)F)c1 (centres unmarked) [Example 418],,501 to 2500 nM

# — patent US7034056B2, “Aryl and biaryl compounds having MCH modulatory activity” (Pharmacopeia Drug Discovery, inc., priority 2001, dated 2006)
